Experimental data as given in US20160213619A1, “INTRAORALLY DISINTEGRABLE TABLET COMPRISING DISINTEGRABLE GRANULAR COMPOSITION” (DAICEL CORPORATION, priority 2013, published 2016).

Experiment: distribution coefficient (log P), measured between n-octanol and water
Type: physicochemical
Conditions: experimental value, read-out: logP Observed
Procedure: On the other hand, the measured value of the distribution coefficient is calculated by the following equation using a concentration of a medicinal ingredient dissolved in each of two phases of water and n-octanol, which is obtained by a conventional quantitative method such as absorption spectrophotometry, gas chromatography or liquid chromatography:
Log P=Log [(concentration of the medicinal ingredient in n-octanol phase)/(concentration of the medicinal ingredient in water phase)

Compound | logP
O=C1O[C@H]([C@@H](O)CO)C(O)=C1O [ascorbic acid] | -2.15
CCOc1ccccc1C(N)=O [ethenzamide] | 1.39
